The values that follow come from patent publication US5563163A, “2-saccharinylmethyl heterocyclic carboxylates useful as proteolytic enzyme inhibitors and compositions and method of use thereof” (Sterling Winthrop, Inc., priority 1995, dated 1996).

Where a name gives a salt, the structure may show the parent alone.

The assay has as its target T1, human leukocyte elastase (HLE) (Homo sapiens, UniProt P08246).
T1 sequence (P08246 30-267): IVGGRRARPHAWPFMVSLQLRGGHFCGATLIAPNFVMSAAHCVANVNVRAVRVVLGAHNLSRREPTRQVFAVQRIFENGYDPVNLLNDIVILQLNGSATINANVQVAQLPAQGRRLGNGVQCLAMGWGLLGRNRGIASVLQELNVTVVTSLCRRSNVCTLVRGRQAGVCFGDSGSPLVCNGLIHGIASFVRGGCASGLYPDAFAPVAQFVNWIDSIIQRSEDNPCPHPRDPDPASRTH
Kind of assay: Inhibition of human leukocyte elastase (HLE): rate of inactivation kon and inhibition constant Ki* (= koff/kon). The format is biochemical. As to conditions: for kinact/KI: "Kon × 10^-3": value is Kon multiplied by 10^-3; for Ki: Ki* calculated as koff/kon, not a truly reversible Ki. The method, then:
Measurement of the inhibition constant, Ki, of a HLE-inhibitor complex has been described for "truly reversible inhibition constants" usually concerning competitive inhibitors. [Cha, Biochem. Pharmacol., 24, 2177-2185 (1975)]. […] Thus, instead of measuring a Ki, a Ki * is calculated which is defined as the ratio of the koff /kon, the rate of reactivation of the enzyme to the rate of inactivation of the enzyme. The values of koff and kon are measured and Ki * is then calculated. The rate of inactivation, kon, of enzymatic activity was determined for the compounds tested by measuring the enzyme activity of an aliquot of the respective enzyme as a function of time after addition of the test compound. […] The rate of inactivation is then equal to [formula] where [I] is the concentration of the inhibiting compound. The reactivation constant, koff, is similarly determined, and the inhibition constant, Ki *, is then calculated as Ki *=koff /kon The values obtained for kon and Ki * for specific substituted saccharin derivatives are shown in TABLE 3, the compounds being identified by the Example numbers above where their preparations are described.

As a reminder, the kinact/KI is the second-order rate constant of inactivation. Regarding `CC(C)c1cccc2c1C(=O)N(COC(=O)c1c(Cl)cnc(OCCN3CCOCC3)c1Cl)S2(=O)=O` [Example 3, 4-(isopropyl]-2-saccharinylmethyl 3.5-dichloro-2-[2-(4-morpholinyl)ethoxy]pyridine-4-carboxylate hydrochloride], the second-order inactivation constant (kinact/KI) is 1.5e+06 M⁻¹ s⁻¹ and the Ki is 15 pM.
Turning to `CC(C)c1cccc2c1C(=O)N(COC(=O)c1c(Cl)cncc1Cl)S2(=O)=O` [Example 4, 4-isopropyl-2-saccharinylmethyl 3,5-dichloro-pyridine-4-carboxylate hydrochloride], the kinact/KI came out at 2.3e+06 M⁻¹ s⁻¹.
For `O=C(OCN1C(=O)c2ccccc2S1(=O)=O)c1ccncc1` [Example 1, 2-saccharinylmethyl pyridine-4-carboxylate], the kinact/KI was 1200 M⁻¹ s⁻¹ and the Ki is 40000 pM.
The matching figures for `COc1cc(C(C)C)c2c(c1)S(=O)(=O)N(COC(=O)c1c(C)c3cc(Cl)ccc3n1C)C2=O` [Example 15, 4-isopropyl-6-methoxy-2-saccharinylmethyl 1,3-dimethyl-5-chloro-indole-2-carboxylate]: 6000 M⁻¹ s⁻¹ and 1500 pM.
The matching figures for `COc1cc(C(C)C)c2c(c1)S(=O)(=O)N(COC(=O)c1c(C)ccnc1C)C2=O` [Example 14, 4-isopropyl-6-methoxy-2-saccharinylmethyl 2,4-dimethylpyridine-3 carboxylate]: 500000 M⁻¹ s⁻¹ and 20 pM.
The corresponding values for `COc1cc(C(C)C)c2c(c1)S(=O)(=O)N(COC(=O)C1CCC(=O)N1)C2=O` (centres unmarked) [Example 11, 4-isopropyl-6-methoxy-2-saccharinylmethyl-2-pyrrolidine-5-carboxylate] are 50000 M⁻¹ s⁻¹ and 200 pM.
In the case of `COc1cc(C(C)C)c2c(c1)S(=O)(=O)N(COC(=O)c1cccs1)C2=O` [Example 8, 4-isopropyl-6-methoxy-2-saccharinylmethyl thiophene-2-carboxylate], the kinact/KI stood at 100000 M⁻¹ s⁻¹ and the Ki is 100 pM.
Turning to `COc1cc(C(C)C)c2c(c1)S(=O)(=O)N(COC(=O)c1cc(C)no1)C2=O` [Example 10, 4-isopropyl-6-methoxy-2-saccharinylmethyl 3-methylisoxazole-5-carboxylate], the second-order inactivation constant (kinact/KI) was determined as 63000 M⁻¹ s⁻¹ and the Ki is 160 pM.
As to `O=C(OCN1C(=O)c2ccccc2S1(=O)=O)c1c(Cl)cncc1Cl` [Example 2, 2-saccharinylmethyl 3,5-dichloropyridine-4-carboxylate], the second-order inactivation constant (kinact/KI) was determined as 11000 M⁻¹ s⁻¹ and the Ki is 10000 pM.
The corresponding values for `COc1cc(C(C)C)c2c(c1)S(=O)(=O)N(COC(=O)c1ccsc1)C2=O` [Example 6, 4-isopropyl-6-methoxy-2-saccharinylmethyl thiophene-3-carboxylate] are 47600 M⁻¹ s⁻¹ and 210 pM.
On to `COc1cc(C(C)C)c2c(c1)S(=O)(=O)N(COC(=O)c1c(Cl)cnc(OCCN(C)C)c1Cl)C2=O` [Example 5, 4-isopropyl-6-methoxy-2-saccharinylmethyl 3,5-dichloro-2-[2-(dimethylamino)ethoxy]pyridine-4-carboxylate], for which the kinact/KI is 455000 M⁻¹ s⁻¹ and the Ki was 22 pM.
The corresponding values for `COc1cc(C(C)C)c2c(c1)S(=O)(=O)N(COC(=O)c1sccc1C)C2=O` [Example 7, 4-isopropyl-6-methoxy-2-saccharinylmethyl 3-methylthiophene-2-carboxylate] are 625000 M⁻¹ s⁻¹ and 16 pM.
The corresponding values for `COc1cc(C(C)C)c2c(c1)S(=O)(=O)N(COC(=O)c1sccc1Cl)C2=O` [Example 9, 4-isopropyl-6-methoxy-2-saccharinylmethyl 3-chlorothiophene-2-carboxylate] are 131000 M⁻¹ s⁻¹ and 76 pM.
The corresponding values for `COc1cc(C(C)C)c2c(c1)S(=O)(=O)N(COC(=O)c1c(C)noc1C)C2=O` [Example 12, 4-isopropyl-6-methoxy-2-saccharinylmethyl 3,5-dimethylisoxazole-4-carboxylate] are 28000 M⁻¹ s⁻¹ and 360 pM.
In the case of `COc1cc(C(C)C)c2c(c1)S(=O)(=O)N(COC(=O)c1c(C)nn(-c3ccccc3)c1C)C2=O` [Example 13, 4-isopropyl.-6-methoxy-2-saccharinylmethyl 3,5-dimethyl-1-phenylpyrazole-4-carboxylate], the kinact/KI came out at 9000 M⁻¹ s⁻¹ and the Ki is 1100 pM.
